Converted amounts (≈) assume the structure as drawn.

Holding throughout (type): functional
The test system of experiment [1] is Candida albicans. Put plainly: Inhibitory activity against Candida albicans (40 clinical isolates), determined at pH-7.2.
In experiment [2] the test system is Candida. Briefly: 50% inhibitory activity against the Candida. species (40 clinical isolates) was determined at pH-7.2.
For experiment [3], the system named is Candida albicans. Put plainly: 50% inhibitory activity against Candida albicans (40 clinical isolates) determined at pH-7.2. Conditions: Candida albicans; read-out: MIC50.
In experiment [4] the test system is Candida. Briefly: Inhibitory activity against Candida. species. (40 clinical isolates), determined at pH-7.2.
Experiment [5] concerns Candida albicans. Put plainly: Inhibitory activity against the Candida albicans (40 clinical isolates), determined at pH-5.8.
In experiment [6] the test system is Candida albicans. Put plainly: Percent resistance against Candida albicans (40 clinical isolates) at 256 micro g/mL (pH=5.8), activity is expressed as R%.
Experiment [7] concerns Candida. Put plainly: Inhibitory activity against Candida. species (40 clinical isolates), determined at pH-5.8.
Experiment [8] relates to Candida albicans. Put plainly: Inhibitory activity against the Candida albicans (40 clinical isolates), determined at pH-7.2.
Experiment [9] has as its system Candida albicans. Briefly: Inhibitory activity against Candida albicans (40 clinical isolates), determined at pH-5.8.
The test system of experiment [10] is Candida. Briefly: Percent resistance against all Candida. species (40 clinical isolates) at 256 micro g/mL (pH=7.2), activity is expressed as R%.
In experiment [11] the test system is Candida. Put plainly: Inhibitory activity against Candida. species. (40 clinical isolates), determined at pH-5.8.
Experiment [12] concerns Candida albicans. Put plainly: Resistance against Candida. albicans (40 clinical isolates) at 256 ug/mL (pH=7.2), activity is expressed as R%.
Experiment [13] has as its system Candida. Briefly: Resistance against all Candida. species (40 clinical isolates) at 256 micro g/mL (pH=5.8). Activity is expressed as R%.
The test system of experiment [14] is Candida albicans. Put plainly: 50% inhibitory activity against Candida albicans (40 clinical isolates) determined at pH-5.8.
For experiment [15], the system named is Candida. Put plainly: 90% inhibitory activity against Candida. species (40 clinical isolates) determined at pH-7.2.

Consider `Fc1ccc(C(c2c[nH]cc2-c2ccccc2Cl)n2ccnc2)cc1` (stereo unspecified), for which the MIC against Candida albicans [1] was found to be 36.5 µg/mL (≈ 104 µM); with Candida [4] it was 107 µg/mL (≈ 305 µM); against Candida albicans [9] it was 48.3 µg/mL (≈ 137 µM); in the experiment on Candida [11], 71.1 µg/mL (≈ 202 µM). Moreover, the MIC50 in the experiment on Candida [2] amounted to 64 µg/mL (≈ 182 µM); in the experiment on Candida albicans [3] it was 32 µg/mL (≈ 91 µM); in the experiment with Candida [7] it was 64 µg/mL (≈ 182 µM); in the experiment on Candida albicans [14], 32 µg/mL (≈ 91 µM). Further, the MIC90 against Candida albicans [5] is 64 µg/mL (≈ 182 µM); against Candida [7], 64 µg/mL (≈ 182 µM); in the experiment with Candida albicans [8], 64 µg/mL (≈ 182 µM); in the experiment with Candida [15], 256 µg/mL (≈ 728 µM). Also, the R in the experiment with Candida albicans [6], in the experiment on Candida [10], in the experiment with Candida albicans [12] and in the experiment with Candida [13] was 0% throughout.
As for `Clc1ccc(C(c2c[nH]cc2-c2ccccc2)n2ccnc2)c(Cl)c1` (stereo unspecified), the MIC in the experiment on Candida albicans [1], against Candida [4], with Candida albicans [9] and in the experiment with Candida [11] was > 256 µg/mL each time. The MIC50 in the experiment on Candida [2], in the experiment with Candida albicans [3], in the experiment on Candida [7] and in the experiment on Candida albicans [14] was > 256 µg/mL each time. Besides, the MIC90 in the experiment with Candida albicans [5], with Candida [7], in the experiment on Candida albicans [8] and in the experiment on Candida [15] was > 256 µg/mL throughout. Besides, the R in the experiment with Candida albicans [6], with Candida [10], in the experiment on Candida albicans [12] and in the experiment with Candida [13] was 100% in each case.
As to `O=[N+]([O-])c1ccc(C(c2c[nH]cc2-c2ccc(Cl)c(Cl)c2)n2ccnc2)cc1` (stereo unspecified), the MIC in the experiment with Candida albicans [1] was > 312 µg/mL; against Candida [4], > 256 µg/mL; against Candida albicans [9] it was > 283 µg/mL; with Candida [11], > 256 µg/mL. In addition, the MIC50 with Candida [2] was > 256 µg/mL; with Candida albicans [3], 256 µg/mL (≈ 619 µM); in the experiment on Candida [7] it was > 256 µg/mL; in the experiment on Candida albicans [14], 256 µg/mL (≈ 619 µM). The MIC90 against Candida albicans [5], against Candida [7], in the experiment on Candida albicans [8] and against Candida [15] was > 256 µg/mL in each case. The R in the experiment with Candida albicans [6] is on record as 50%; with Candida [10], 100%; in the experiment on Candida albicans [12], 50%; in the experiment on Candida [13], 100%.
With `Nc1ccc(C(c2c[nH]cc2-c2ccccc2Cl)n2ccnc2)cc1` (stereo unspecified), the MIC in the experiment with Candida albicans [1] was 131 µg/mL (≈ 376 µM); in the experiment with Candida [4] it was > 222 µg/mL; against Candida albicans [9] it was 100 µg/mL (≈ 288 µM); with Candida [11], 201 µg/mL (≈ 576 µM). The MIC50 was 256 µg/mL (≈ 734 µM) with Candida [2], 64 µg/mL (≈ 183 µM) in the experiment with Candida albicans [3], 256 µg/mL (≈ 734 µM) against Candida [7] and 64 µg/mL (≈ 183 µM) against Candida albicans [14]. In addition, the MIC90 in the experiment with Candida albicans [5], in the experiment on Candida [7], against Candida albicans [8] and against Candida [15] was 256 µg/mL (≈ 734 µM) each time. Moreover, the R in the experiment with Candida albicans [6] was determined as 0%; in the experiment with Candida [10], 50%; in the experiment on Candida albicans [12] it was 0%; in the experiment on Candida [13], 50%.
Turning to `Clc1ccc(-c2c[nH]cc2C(c2ccc(-c3ccccc3)cc2)n2ccnc2)cc1` (stereo unspecified), the MIC with Candida albicans [1] is > 150 µg/mL; against Candida [4], > 352 µg/mL; in the experiment with Candida albicans [9] it was > 26.5 µg/mL; with Candida [11] it was 28.4 µg/mL (≈ 69.3 µM). Further, the MIC50 with Candida [2] was > 256 µg/mL; in the experiment on Candida albicans [3], 64 µg/mL (≈ 156 µM); with Candida [7], 32 µg/mL (≈ 78.1 µM); with Candida albicans [14], 8 µg/mL (≈ 19.5 µM). Besides, the MIC90 in the experiment on Candida albicans [5] is 256 µg/mL (≈ 625 µM); in the experiment with Candida [7], 128 µg/mL (≈ 312 µM); with Candida albicans [8] it was 256 µg/mL (≈ 625 µM); in the experiment with Candida [15], > 256 µg/mL. Also, the R in the experiment on Candida albicans [6] is 0%; with Candida [10], 60%; in the experiment with Candida albicans [12], 40%; in the experiment on Candida [13], 0%.
With `Clc1ccc(-c2c[nH]cc2C(c2ccc(-n3cccc3)cc2)n2ccnc2)cc1Cl` (stereo unspecified), the MIC with Candida albicans [1] is > 289 µg/mL; against Candida [4] it was > 438 µg/mL; in the experiment with Candida albicans [9], > 264 µg/mL; against Candida [11] it was > 256 µg/mL. The MIC50 was > 256 µg/mL in the experiment with Candida [2], 128 µg/mL (≈ 295 µM) in the experiment on Candida albicans [3], > 256 µg/mL with Candida [7] and 128 µg/mL (≈ 295 µM) against Candida albicans [14]. The MIC90 with Candida albicans [5], in the experiment with Candida [7], against Candida albicans [8] and with Candida [15] was > 256 µg/mL throughout. For the same molecule, the R is recorded as 40% in the experiment on Candida albicans [6], 80% with Candida [10], 50% with Candida albicans [12] and 100% in the experiment on Candida [13].

As a reminder, the MIC is the least concentration at which growth counts as inhibited. Lower therefore signals a more susceptible organism. One may read the MIC50 as an inhibitory concentration at the 50% level, which refers to growth in some studies and to a panel of isolates in others. What is called MIC90 is an inhibitory concentration at the 90% level, which refers to growth in some studies and to a panel of isolates in others. The low end stands for higher susceptibility, the high end for lower susceptibility.

(Values after ChEMBL document CHEMBL1128323, “Antifungal agents. 9. 3-Aryl-4-[alpha-(1H-imidazol-1-yl)arylmethyl]pyrroles: a new class of potent anti-Candida agents” (1995).)
